Test results published in US20080166310A1, “Administration of 2-oxyacetamide compounds for promoting and/or inducing and/or stimulating the pigmentation of keratin materials and/or for limiting the depigmentation and/or bleaching thereof” (L'OREAL, priority 2005, published 2008).

Tested on: tyrosinase activity of normal human melanocytes
Test: Effect on the tyrosinase activity of normal human melanocytes in culture (L-Dopa substrate, absorbance 450 nm)
Type: cell-based
Settings: 72 hours, normal human epidermal melanocytes
Method: Melanocyte Culture Conditions:
Normal human epidermal melanocytes are cultured (9th passage) in “melanocytes growth medium M2” supplemented with Promocell C24300 supplements 50 IU/ml of penicillin and 50 μg/ml of streptomycin (Invitrogen) under standard temperature conditions (37° C.) and 5% CO2.
Preparation of the Solutions of the Test Compound:
The compound is dissolved in absolute ethanol (PGE2) or in DMSO (15-PGDH inhibitors). The final titer of the prepared solutions is 10 mM. The final test concentrations range from 0.1 to 10 μM (PGE2) and 1 to 10 μM (15-PGDH inhibitors).
The tests performed consist in measuring the inhibitory effect on 15-PGDH alone or combined with PGE2* on the overall activity of tyrosinase.
PGE2 is a pigmentation modulator that is deactivated by the enzyme 15-PGDH.
The melanocytes are cultured in 96-well plates, to the point of confluence (culture conditions described in a), and the supernatant of each of the wells is then removed and replaced with medium containing the compounds to be evaluated, i.e., (in triplicate) the 15-PGDH inhibitor alone at 1 μM and 10 μM or for each of these first conditions in the presence of 0.1 μM, 1 μM or 10 μM of PGE2.
The cultures are maintained under these various conditions for 72 hours, the supernatants are then removed and the cell carpets are washed with a phosphate buffer (pH=7.2). The cells are lysed with a pH 7.2 phosphate buffer containing 1% Triton X100.
The tyrosinase activity of each of the lysates is then estimated against a fungal tyrosinase range (Sigma T7755).
The methodology employed uses L-Dopa as reaction substrate (45 minutes at 37° C.), and the formation of melanin is assessed by measuring the absorbance at 450 nm.
In this test, two references are also evaluated: kojic acid (a tyrosinase inhibitor introduced at 0.1% into the culture medium) and isobutylmethylxanthine (IBMX), a phosphodiesterase inhibitor which, by limiting the catabolism of cAMP, contributes towards increasing the overall tyrosinase activity as assessed in this test.

| Compound | stimulation of the activity of tyrosinase (PGE2 alone at 1 μM) | stimulation of the activity of tyrosinase (PGE2 alone at 10 μM) | stimulation of the tyrosinase activity (Compound 23 (1 μM) + PGE2 (1 μM)) | stimulation of the tyrosinase activity (Compound 23 (1 μM) + PGE2 (10 μM)) |
| --- | --- | --- | --- | --- |
| CCCCC[C@H](O)/C=C/[C@H]1[C@H](O)CC(=O)[C@@H]1C/C=C\CCCC(=O)O [PGE2, prostaglandin E2] | 9% | 15% |  |  |
| O=C(COc1cccc(Cl)c1)NCc1ccco1 [Compound 23, 2-(3-chlorophenoxy)-N-furan-2-ylmethylacetamide] |  |  | 31% | 28% |
